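How tested: cells in 96-well plates exposed to compound for 48 hours at five concentrations. The concentration for full growth arrest is given as TGI.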
Tests used:
Assay in all cases: growth of human tumour cells (NCI), 48 h
DU-145 prostate = system: DU-145 prostate
UO-31 renal = system: UO-31 renal
LOX IMVI melanoma = system: LOX IMVI melanoma
SK-MEL-2 melanoma = system: SK-MEL-2 melanoma
HT29 colon = system: HT29 colon
RPMI-8226 leukemia = system: RPMI-8226 leukemia
SK-MEL-28 melanoma = system: SK-MEL-28 melanoma
SN12C renal = system: SN12C renal
IGROV1 ovarian = system: IGROV1 ovarian
TK-10 renal = system: TK-10 renal
BT-549 breast = system: BT-549 breast
KM12 colon = system: KM12 colon
OVCAR-4 ovarian = system: OVCAR-4 ovarian
MDA-MB-231 breast = system: MDA-MB-231 breast
NCI/ADR-RES ovarian = system: NCI/ADR-RES ovarian
UACC-257 melanoma = system: UACC-257 melanoma
SF-268 CNS = system: SF-268 CNS
CAKI-1 renal = system: CAKI-1 renal
M14 melanoma = system: M14 melanoma
OVCAR-3 ovarian = system: OVCAR-3 ovarian

Structure (SMILES) | TGI (DU-145 prostate) [µM] | TGI (UO-31 renal) [µM] | TGI (LOX IMVI melanoma) [µM] | TGI (SK-MEL-2 melanoma) [µM] | TGI (HT29 colon) [µM] | TGI (RPMI-8226 leukemia) [µM] | TGI (SK-MEL-28 melanoma) [µM] | TGI (SN12C renal) [µM] | TGI (IGROV1 ovarian) [µM] | TGI (TK-10 renal) [µM] | TGI (BT-549 breast) [µM] | TGI (KM12 colon) [µM] | TGI (OVCAR-4 ovarian) [µM] | TGI (MDA-MB-231 breast) [µM] | TGI (NCI/ADR-RES ovarian) [µM] | TGI (UACC-257 melanoma) [µM] | TGI (SF-268 CNS) [µM] | TGI (CAKI-1 renal) [µM] | TGI (M14 melanoma) [µM] | TGI (OVCAR-3 ovarian) [µM]
C=CCc1cc(C(Cc2ccccc2)NC(C)C)cc(OCc2ccccc2)c1OCc1ccccc1 (stereo not given) | 29.7 | 21.7 | 31.7 | 33.4 | 28.6 | 30.9 | 30.2 | 29.4 | 29.9 | 30.8 | 31.4 | 40.2 | 33.1 | 28.3 | 30.7 | 34.4 | 30 | 29.5 | 28.8 | 30.4
CC1CN=C(c2cccc(-c3nc(-c4cccc(C5=NCC(C)N5)c4)nc(N(C)C)n3)c2)N1 (stereo not given) | 7.14 | 13.4 | 2.6 | 4.64 | 5.48 | 6.87 | 13.2 | 3.46 | 18.4 | 9.76 | 13.9 | 7.72 | 2.72 | 3.48 | 35.9 | 11 | 10.7 | 32.2 | 13 | 4.19
C=CCCCCOC1C=CC(O)C(CO)O1 (stereo not given) | > 100 | > 100 | > 100 | > 100 | > 100 | > 100 | > 100 | > 100 | > 100 | > 100 | > 100 | > 100 | > 100 | > 100 | > 100 | > 100 | > 100 | > 100 | > 100 | > 100
COc1cc(NC=C2C(=O)OC(C)(C)OC2=O)c(OC)c(C)c1OC | > 100 | > 100 | > 100 | > 100 | > 100 | > 100 | > 100 | > 100 | > 100 | > 100 | > 100 | > 100 | > 100 | > 100 | > 100 | > 100 | > 100 | > 100 | > 100 | > 100
C[N+]1(CCC[N+]2(C)CC3C4C=CC(CC4)C3C2)CCOCC1 (stereo not given) | > 100 | > 100 | > 100 | > 100 | > 100 | > 100 | > 100 | > 100 | > 100 | > 100 | > 100 | > 100 | > 100 | > 100 | > 100 | > 100 | > 100 | > 100 | > 100 | > 100
CC(C)(C)OC(=O)CN1CCN(CC(=O)N2CCN(C(=O)OCc3ccccc3)CC2)CCN(CC(=O)OC(C)(C)C)CCN(CC(=O)N2CCN(C(=O)OCc3ccccc3)CC2)CC1 | 20.1 | 25.5 | 2.93 | 5.54 | 1.37 | 2.91 | 16.2 | 16.3 | 2.65 | 15.9 | 14.5 | 3.06 | 16.2 | 5.01 | 34.4 | 5.92 | 7.34 | 23.4 | 14.3 | 13.1
